Laboratory results: patent publication US7572765B2, “Conformationally constrained parathyroid hormone (PTH) analogs” (The General Hospital Corporation, priority 2001, dated 2009)
Values joined by “and” are separate entries in the source; they are usually repeats but may differ in a detail not shown here. Equal values may be shown once. Read-outs that look alike come from different tables or passages of the source. Square brackets hold non-standard residues; d marks the D form. Peptide text beside a SMILES is read from it. hArg = N=C(N)NCCCC[C@H](N)C(=O)O; Aib = CC(C)(N)C(=O)O

What was measured:
human P1R = biological target: T1, human P1R (Homo sapiens, UniProt Q03431); assay: cAMP stimulation in HKRK-B28 cells; type: cell-based; details: for cAMP EMax(obs.): basal 4.0 ± 0.1 pmole/well not subtracted
T1 construct: expressed in transfected cells; host or cells: HKRK-B28 (porcine kidney LLC-PK1, stably transfected)
T1 sequence (Q03431 27-593): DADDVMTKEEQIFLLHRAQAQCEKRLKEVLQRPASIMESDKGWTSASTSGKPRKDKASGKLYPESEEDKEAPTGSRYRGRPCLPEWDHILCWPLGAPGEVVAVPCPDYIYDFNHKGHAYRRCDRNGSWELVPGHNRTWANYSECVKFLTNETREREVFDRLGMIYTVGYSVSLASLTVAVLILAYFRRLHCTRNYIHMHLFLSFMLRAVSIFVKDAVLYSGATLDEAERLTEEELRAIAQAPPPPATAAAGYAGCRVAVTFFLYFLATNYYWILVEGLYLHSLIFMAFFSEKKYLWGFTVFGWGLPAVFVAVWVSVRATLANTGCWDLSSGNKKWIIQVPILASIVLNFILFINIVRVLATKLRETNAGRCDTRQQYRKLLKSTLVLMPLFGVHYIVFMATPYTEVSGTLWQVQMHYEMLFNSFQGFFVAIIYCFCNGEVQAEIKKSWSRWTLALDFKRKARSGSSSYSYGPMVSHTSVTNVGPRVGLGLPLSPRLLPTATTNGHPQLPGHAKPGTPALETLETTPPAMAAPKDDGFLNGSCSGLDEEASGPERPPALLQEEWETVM

[1] = Circular dichroism spectroscopy (helical content); type: physicochemical; details: for [0]222obs × 10^−3, Phos. / [0]222obs × 10^−3, Phos + TFE: 20 μM peptide; for [0]222obs × 10^−3, Phos.: 50 mM phosphate buffer pH 7.4; for [0]222obs × 10^−3, Phos + TFE / helical residues (%), Phos + TFE: 50 mM phosphate buffer with trifluoroethanol (20%); for helical residues (%), Phos + TFE / helical residues (%), Phos.: from elipticity at 222 nM; for helical residues (%), Phos.: 50 mM phosphate buffer
Protocol: Circular Dichroism. Circular Dichroism spectra were recorded on a Jasco model 710 spectropolarimeter; peptides were analyzed at a concentration of20 μM in 50 mM sodium phosphate buffer pH 7.4, or the same buffer containing 2,2,2-trifluoroethanol at 20% (v/v). Spectroscopic scans were preformed at 20° C. and at wavelengths between […], with data recored at each 1 nM interval. The spectral bandwidth was 1.5 nM and 8 scans were accumulated and averaged for each sample. At each wavelength, the mean residue elipticity [θ×100/l×C×n); where θ is the raw elipticity value (in dimensions of millidegree), l is the sample path length, C=is the molar peptide concentration, and n is the number of residues in the peptide (Bowen, W. P., and Jerman, J. C., Trends in Pharmacol. Sci. 16: 413-417 (1995)). The helical content of each peptide was estimated by dividing [θ] observed at 222 nM for that peptide by −28,100, which is the reported [θ]222obs for a model helical decapeptide (Bowen, W. P., and Jerman, J. C., Trends in Pharmacol. Sci. 16: 413-417 (1995)).
Circular dichroism (CD) spectroscopy was used to analyze the potential effects that the Aib substitutions had on peptide secondary structure when the peptides were free in solution. Samples were analyzed in both aqueous phosphate buffer and in phosphate buffer containing 2,2,2-trifloroethanol, an organic solvent which promotes helical structure in oligopeptides, including PTH peptide fragments (Pellegrini, M., et al., J. Biol. Chem. 273:10420-10427 (1998); Gronwald, W., et al., Biol. Chem. Hoppe Seyler 377:175-186 (1996); Barden, J. A., and Kemp, B. E., Biochemistry 32:7126-7132 (1993)). In phosphate buffer, the helical content of each peptide, estimated from the elipticity observed at 222 nM, was small (≦16%); however, [Aib^1,3,M]PTH(1-14) contained nearly twice as much helix as did [M]PTH(1-14) (16% and 8.1% respectively), as did [Aib^1,3,M]PTH(1-1l), as compared to […] (13% and 7.5% respectively, Table 4). […] The higher helical contents of these two peptides were evident not only from the negative elipticities at […] and 222 nM, but also from the positive elipticities at 192 nM (FIG. 6).

Row | EC50 (human P1R) | maximum (Emax) increase in intracellular cAMP (human P1R) [fold] | cAMP EMax(obs.) (human P1R) [pmole/well] | cAMP potency, fold more potent than [Ala^3,Gln^10]PTH(1-10) (human P1R) [fold] | cAMP potency, fold weaker relative to [Aib^1,3,M]PTH(1-11) (human P1R) [fold] | [0]222obs × 10^−3, Phos. [1] | [0]222obs × 10^−3, Phos + TFE [1] | helical residues (%), Phos + TFE [1] | helical residues (%), Phos + TFE ([1]; M]PTH(1-10)) [%] | helical residues (%), Phos. [1] [%] | cAMP potency, fold greater than that of [M]PTH(1-11) (human P1R) | cAMP potency, fold greater than that of [M]PTH(1-11) (human P1R; listed as [Aib^1,3,Gln^10,Har^11]PTH(1-11)) [fold] | cAMP potency (EC50), fold less than that of PTH(1-34) (human P1R) [fold] | fold more potent in stimulating cAMP formation than [M]PTH(1-14) (human P1R) | Compound
1 | 2.5 ± 0.4 nM | ~70 | 280 ± 11 | – | – | – | – | – | – | – | – | – | – | – | CCCC[C@H](NC(=O)[C@H](CCCNC(=N)N)NC(=O)[C@H](CCC(=O)O)NC(=O)[C@@H](NC(=O)[C@H](CO)NC(=O)[C@H](C)NC(=O)[C@H](CC(C)C)NC(=O)[C@H](Cc1c[nH]cn1)NC(=O)[C@H](CCCCN)NC(=O)CNC(=O)[C@H](CC(C)C)NC(=O)[C@H](CC(N)=O)NC(=O)[C@H](Cc1c[nH]cn1)NC(=O)[C@H](CCCC)NC(=O)[C@H](CC(C)C)NC(=O)[C@H](CCC(N)=O)NC(=O)[C@@H](NC(=O)[C@H](CCC(=O)O)NC(=O)[C@H](CO)NC(=O)[C@@H](NC(=O)[C@H](C)N)C(C)C)[C@@H](C)CC)C(C)C)C(=O)N[C@@H](CCC(N)=O)C(=O)N[C@@H](Cc1c[nH]c2ccccc12)C(=O)N[C@@H](CC(C)C)C(=O)N[C@@H](CCCNC(=N)N)C(=O)N[C@@H](CCCCN)C(=O)N[C@@H](CCCCN)C(=O)N[C@@H](CC(C)C)C(=O)N[C@@H](CCC(N)=O)C(=O)N[C@@H](CC(=O)O)C(=O)N[C@H](C(=O)N[C@@H](Cc1c[nH]cn1)C(=O)N[C@@H](CC(N)=O)C(=O)N[C@@H](Cc1ccc(O)cc1)C(N)=O)C(C)C [PTH(1-34), [Nle^8,21, Tyr^34]PTH(1-34)amide, reference compound]
2 | 16000 ± 2000 nM | – | 111 ± 8 | 50 | 4000 | −3.2 | −13.1 | approximately 47% | 47 | 11 | – | – | – | – | CC[C@H](C)[C@H](NC(=O)[C@H](CCC(=O)O)NC(=O)C(C)(C)NC(=O)[C@@H](NC(=O)C(C)(C)N)C(C)C)C(=O)N[C@@H](CCC(N)=O)C(=O)N[C@@H](CC(C)C)C(=O)N[C@@H](CCSC)C(=O)N[C@@H](Cc1c[nH]cn1)C(=O)N[C@@H](CCC(N)=O)C(N)=O [[Aib^1,3,M]PTH(1-10), [Aib^1,3,Gln^10]PTH(1-10)] (H-[Aib]V[Aib]EIQLMHQ-NH2)
3 | 4 nM and ~6 nM | – | 243 ± 15 | – | – | −3.7 | −16.1 | 57% | – | 13 | 1,000 fold | 1000 | – | – | CC[C@H](C)[C@H](NC(=O)[C@H](CCC(=O)O)NC(=O)C(C)(C)NC(=O)[C@@H](NC(=O)C(C)(C)N)C(C)C)C(=O)N[C@@H](CCC(N)=O)C(=O)N[C@@H](CC(C)C)C(=O)N[C@@H](CCSC)C(=O)N[C@@H](Cc1c[nH]cn1)C(=O)N[C@@H](CCC(N)=O)C(=O)N[C@@H](CCCCNC(=N)N)C(N)=O [[Aib^1,3,M]PTH(1-11), AibValAibGluIleGlnLeuMetHisGlnHar] (H-[Aib]V[Aib]EIQLMHQ[hArg]-NH2)
4 | – | ~70 | 270 ± 8 | – | – | −2.3 | −11.9 | 42% | – | 8.1 | – | – | 40 | – | CC[C@H](C)[C@H](NC(=O)[C@H](CCC(=O)O)NC(=O)[C@H](C)NC(=O)[C@@H](NC(=O)[C@H](C)N)C(C)C)C(=O)N[C@@H](CCC(N)=O)C(=O)N[C@@H](CC(C)C)C(=O)N[C@@H](CCSC)C(=O)N[C@@H](Cc1c[nH]cn1)C(=O)N[C@@H](CCC(N)=O)C(=O)N[C@@H](CCCCNC(=N)N)C(=O)N[C@@H](C)C(=O)N[C@@H](CCCCN)C(=O)N[C@@H](Cc1c[nH]c2ccccc12)C(N)=O [[M]PTH(1-14), [Ala^3,12,Gln^10,Har^11,Trp^14]PTH(1-14)amide, reference compound] (H-AVAEIQLMHQ[hArg]AKW-NH2)
5 | 1.1 nM and ~1 nM | – | 278 ± 20 | – | – | −4.6 | −15.7 | 56% | – | 16 | – | – | – | 90 fold and 100 fold | CC[C@H](C)[C@H](NC(=O)[C@H](CCC(=O)O)NC(=O)C(C)(C)NC(=O)[C@@H](NC(=O)C(C)(C)N)C(C)C)C(=O)N[C@@H](CCC(N)=O)C(=O)N[C@@H](CC(C)C)C(=O)N[C@@H](CCSC)C(=O)N[C@@H](Cc1c[nH]cn1)C(=O)N[C@@H](CCC(N)=O)C(=O)N[C@@H](CCCCNC(=N)N)C(=O)N[C@@H](C)C(=O)N[C@@H](CCCCN)C(=O)N[C@@H](Cc1c[nH]c2ccccc12)C(N)=O [[Aib^1,3,M]PTH(1-14), AibValAibGluIleGlnLeuMetHisGlnHarAlaLysTrp] (H-[Aib]V[Aib]EIQLMHQ[hArg]AKW-NH2)
6 | – | – | – | – | – | −2.6 | −10.6 | 38% | – | 9.1 | – | – | – | – | H-AVSEIQLMHNLGKH-NH2 [PTH(1-14), reference compound]
